Earlier results on one compound are cited in patent US20260183237A1, “NANOEMULSION WITHOUT PROPYLENE GLYCOL” (BIOFRONTERA, INC., priority 2023, published 2026).

As for `NCC(=O)CCC(=O)O` [5-aminolevulinic acid], the “octanol-water partition coefficient (logP)” value is recorded as “around −3”.
